In US9668959B2, “A3 adenosine receptor ligands for modulation of pigmentation” (ORADIN PHARMACEUTICAL LTD., priority 2009, dated 2017):

Assays:
human breast skin = assay: Ex vivo human skin organ culture, pigmentation by Fontana-Masson stain; assay type: cell-based; conditions: for melanin accumulation and/or deposition in keratinocytes (histological appearance): FIG. 9
Method: Formalin fixed paraffin embedded skin sections from samples of human breast skin treated with IB-MECA, MRS-1523 or hydroquinone as described for FIG. 8, were evaluated for Fontana-Masson staining and visualized by light microscopy (×400). IBMX (100 μM) was used as a positive control for induction of melanogenesis. K, keratinocytes; M, melanocytes.
Samples of human breast skin obtained during breast surgery were cut into pieces (0.5×0.5 cm) and cultured in DMEM medium (described above) in 6 well plates and incubated at 37° C. with 5% CO2 for 12 days. Skin samples were topically treated with 10 or 50 μM of various A3 adenosine receptor ligands or 100 μM hydroquinone three times during the incubation period and the medium was exchanged every 3 days.

B16 melanocytes [1] = assay: Melanin assay (melanin in cell lysates and media) in B16 melanocytes; assay type: cell-based, murine; conditions: for melanin secretion to the media, visual (photograph): FIG. 3E; for detectable levels of melanin secreted to the medium (extracellular): after 24 hours of exposure; for increase of the total melanin level: FIG. 1B
Method: B16 F1 melanoma cells were grown adherently and maintained in DMEM (without phenol red), containing 10% fetal calf serum, 1% antibiotics (penicillin, streptomycin and nystatin, each at 100 U/ml), and 2 mM L-glutamine. Cells were cultured at 37° C. in 5% CO2, and passaged two to three times weekly at a ratio of 1:10.
Melanin content was determined as reported by Sato et al., (2008), Biol. Pharm. Bull., 31(1):33-7, with modifications. Cells (6.5×10^4) were seeded into 6 well plates with 5 ml of DMEM medium (described above) and incubated at 37° C. with 5% CO2 for 3-4 hours to enable cell adherence. Cells were then exposed to test chemicals (IB-MECA, MRS-1523 or kojic acid) at the desired concentration and incubation periods. After the treatment, the supernatants were collected to determine the amount of melanin secreted to the medium. Cells were washed with PBS, detached by incubation with trypsin/EDTA and then DMEM with serum (0.75 ml) was added to each well. Cells were collected by centrifugation and lysed by exposure to 2N NaOH (1 ml) at 60° C. for 1 h and the melanin content was determined by measuring the absorption at 400 nm. The amount of protein in each lysate was determined using bovine serum albumin is used as the standard. The amount of melanin in each sample was calculated using synthetic melanin as standard. The results were expressed as the melanin content per mg protein (μg/mg protein). To compare among treatments, the results were expressed as percent relative to control.

human skin explants = assay: Ex vivo human skin organ culture, pigmentation by DOPA staining and light transmission; assay type: cell-based; conditions: for number of dark-stained DOPA positive melanocytes (D-P-M) compared to control: IB-MECA or MRS-1523 10 or 50 μM, hydroquinone 100 μM, FIGS. 8B and 8D; for melanin levels in skin explants: 10 or 50 μM, 12 days of exposure
Method: Samples of human breast skin obtained during breast surgery were cut into pieces (0.5×0.5 cm) and cultured in DMEM medium (described above) in 6 well plates and incubated at 37° C. with 5% CO2 for 12 days. […] Treated skin samples were washed with PBS and the epidermal sheets were separated from the dermis and incubated in 0.1% L-3,4-DOPA in PBS for 4 h at 37° C. The epidermis sheets were then fixed with 4% formaldehyde solution, dehydrated by graded alcohol, cleared in xylene, and mounted on glass slides. DOPA positive melanocytes were visualized by light microscopy (×400 magnification). […] Light transmission of each area in the epidermis sheet was calculated and expressed as a mean of density of three images.

ERK1/2 = ERK1/2 phosphorylation in B16 melanocytes (western blot); assay type: cell-based, murine; conditions: for ERK phosphorylation: 72 hours of exposure, non-starved cultures (10% FCS), FIG. 6B
Method: (§1) B16 melanocytes grown in 6-well plates were serum starved overnight and then incubated in the presence of IB-MECA or MRS-1523 (10 μM), for different time intervals at 37° C. Cells were then rinsed with ice cold PBS and lysed by addition of RIPA buffer containing: proteinase inhibitor (PIC, 1:50 v/v), 0.1 mM phenylmethylsulphonylfluoride (PMSF) and 1 mM sodium orthovandate. Cells debris was removed by centrifugation. The protein level in the supernatants was determined using BSA as standard. Equal amounts of the sample (20 μg) were separated by SDS-PAGE using 10% polyacrylamide gels. The resolved proteins were then electroblotted onto nitrocellulose membrane. Membranes were blocked with 1% bovine serum albumin and incubated with anti-ERK-2 antibody (1:1000) or anti-phospho-ERK antibody (1:10000) for 1 h at room temperature, or with anti-Akt-1 antibody (1:1000) or with anti-phospho-Akt antibody […] at 4° C. for 24 h. Blots were then washed and incubated with horseradish peroxidase (conjugated secondary antibodies), for 1 hour at room temperature. The proteins were detected using ECL kit. For the detection of ERK phosphorylation after 72 hours of exposure to the ligands, non-starved cells were used (with 10% FCS).
ERK phosphorylation in non-starved cultures (containing 10% FCS) after 72 hours of exposure to the ligands was examined.

Akt = Akt phosphorylation in serum starved B16 melanocytes (western blot); assay type: cell-based, murine; conditions: 10 μM, up to 3 h
Method: as §1

Mitf = Mitf expression and localization in B16 melanocytes (immunostaining, confocal microscopy); assay type: cell-based, murine; conditions: 10 μM; for Mitf expression: 3 h or 24 h, FIG. 7
Method: B16 melanocytes were grown for 24 h on glass cover-slips coated with poly-L-lysine (500 ug/ml) in 6 wells plates in the presence of IB-MECA or MRS-1523 (10 μM), for 3 h or 24 h at 37° C. Cells were fixed in 4% formaldehyde in phosphate buffered saline (PBS) for 1 h at room temperature. […] To block non-specific interaction of the antibodies, cells were incubated with PBS (1% BSA, 0.1% Triton X-100). […] Cells were washed three times with PBS and mounted with Fluoromount (Sigma). Cells were visualized by confocal microscopy (excitation 553 and emission at 568, Lieca).

B16 melanocytes [2] = assay: Microscopy of melanosome level and distribution in treated B16 melanocytes; assay type: cell-based, murine; conditions: 10 μM, 24 h, FIG. 3A
A3 adenosine receptor = conditions: cited from earlier work
[3] = 10 μM, serum starved cells, FIG. 6A
[4] = highest IB-MECA concentration, 5 days, FIG. 1A

CC(C)Cn1c(=O)n(C)c(=O)c2[nH]cnc21 [IBMX, 3-isobutyl-1-methyl-xanthine]
pigmentation of Fontana-Masson stained skin sections compared to control (human breast skin; 100 μM, positive control): increased pigmentation

CCCOC(=O)c1c(-c2ccccc2)nc(CC)c(C(=O)SCC)c1CCC [MRS-1523, 3-propyl-6-ethyl-5[(ethylthio)carbonyl]-2-phenyl-4-propyl-3-pyridine carboxylate]
melanin level in the cells decreased by (B16 melanocytes [1]; 1 μM, 5 days): 27±5.7% | total melanin decreased by (B16 melanocytes [1]; 1 μM, 5 days): 37±5.7% | melanin level in the cells decreased by (B16 melanocytes [1]; 5 μM, 5 days): 24±1.7% | total melanin decreased by (B16 melanocytes [1]; 5 μM, 5 days): 24±1.9% | decrease in the overall melanin level (B16 melanocytes [1]; 10 μM, 5 days): 88±1.3% | melanin secretion to the media, visual (photograph) (B16 melanocytes [1]; 10 μM, 5 days): visually observable decrease in melanin | detectable levels of melanin secreted to the medium (extracellular) (B16 melanocytes [1]; 10 μM): not observed | total melanin level decreased by (B16 melanocytes [1]; 10 μM, four days (96 h)): 67±4.4% | melanin level within the cells decreased by (B16 melanocytes [1]; 40 μM, 5 days, FIG. 2A): 11±2.3% | melanin secretion blocked by (B16 melanocytes [1]; 40 μM, 5 days, FIG. 2A): 88±1.7% | decrease in total melanin (B16 melanocytes [1]; 40 μM, 5 days, FIG. 2B): 67±1.07% | decrease of the intracellular melanin (B16 melanocytes [1]; "this treatment" (concentration unclear), 5 days): 48%±4.9 | secreted and total melanin levels compared to control (B16 melanocytes [1]; all concentrations within 1-40 μM, 5 days): lower than that of the control | pigmentation decreased by (light transmission through epidermal sheets after DOPA staining) (human skin explants; 10 μM, 12 days): 80+21.8% | pigmentation decreased by (light transmission through epidermal sheets after DOPA staining) (human skin explants; 50 μM, 12 days): 49.5 ± 6.9% | number of dark-stained DOPA positive melanocytes (D-P-M) compared to control (human skin explants; 12 days): decreased number | melanin levels in skin explants (human skin explants; topical): decreased melanin levels | time to induced phosphorylation of ERK 1 (ERK1/2; [3]): ≤ 30 min | time to induced phosphorylation of ERK 2 (ERK1/2; [3]): ≤ 10 min | ERK phosphorylation (ERK1/2): stimulated phosphorylation of both ERK1 and ERK 2 | Akt phosphorylation on continued exposure (Akt): downregulation of P-Akt | Mitf expression (Mitf): very low Mitf expression | melanin accumulation and/or deposition in keratinocytes (histological appearance) (human breast skin): lesser extent of melanin accumulation and/or deposition in the keratinocytes | pigmentation of Fontana-Masson stained skin sections compared to control (human breast skin; concentration not given): decreased pigmentation | melanosome level and distribution in the cytosol (B16 melanocytes [2]): more melansomes were observed in the cell periphery and in the dendritic sites of the control and IB-MECA treated melanocytes as compared to MRS-1523 treated cells

Oc1ccc(O)cc1 [hydroquinone]
number of dark-stained DOPA positive melanocytes (D-P-M) compared to control (human skin explants; 12 days): increased number | skin pigmentation (human skin explants; topical, 100 μM, 12 days): increased skin pigmentation

O=c1cc(CO)occ1O [kojic acid]
effect on melanin synthesis and secretion (B16 melanocytes [1]; 5 days, FIG. 4A): both melanin synthesis (overall melanin levels) and secretion (melanin level in the medium) were affected | inhibition in the total melanin level (B16 melanocytes [1]; 5 days, concentration not given, FIG. 4B): 51%±2.4

CNC(=O)[C@H]1O[C@@H](n2cnc3c(NCc4cccc(I)c4)ncnc32)[C@H](O)[C@@H]1O [IB-MECA, N^6-(3-iodobenzyl) adenosine-5′-(N-methyluronamide)]
selectivity for the A3 adenosine receptor versus either the A1 or A2A receptors (A3 adenosine receptor): 50 fold | increase of the total melanin level (B16 melanocytes [1]; 5 μM, 5 days): 220±19.4% | level of total melanin (B16 melanocytes [1]; 10 μM, 72 hours of exposure): non-significantly increased | increase in the total melanin level (B16 melanocytes [1]; 10 μM, 120 h): 537±31.9% | increase of the total melanin level (B16 melanocytes [1]; 10 μM, 5 days): 369±1% | melanin secretion to the media, visual (photograph) (B16 melanocytes [1]; 10 μM, 5 days): visually observable increase in melanin | detectable levels of melanin secreted to the medium (extracellular) (B16 melanocytes [1]; 10 μM): not observed | total melanin level increased by (B16 melanocytes [1]; 10 μM, four days (96 h)): 198±12.1% | increase of the total melanin level (B16 melanocytes [1]; 40 μM, 5 days): 441±53.8% | intracellular melanin level increased by (B16 melanocytes [1]; [4]): 143±4.1% | secretion of melanin to the media increased by (B16 melanocytes [1]; [4]): 554±23.8% | pigmentation increased by (light transmission through epidermal sheets after DOPA staining) (human skin explants; 10 μM, 12 days): 27+3.9% | pigmentation increased by (light transmission through epidermal sheets after DOPA staining) (human skin explants; 50 μM, 12 days): 36+2.6% | number of dark-stained DOPA positive melanocytes (D-P-M) compared to control (human skin explants; 12 days): increased number | melanin levels in skin explants (human skin explants; topical): increased melanin levels | level of ERK phosphorylation (ERK1/2; 10 μM, 10 min to 3 h, serum starved cells, FIG. 6A): did not increase the level of ERK phosphorylation | ERK phosphorylation (ERK1/2): did not appear to affect ERK phosphorylation | Akt phosphorylation on continued exposure (Akt): increased phosphorylation of Akt | time to translocation of Mitf protein to the nucleus (Mitf): ≤ 3 h | Mitf expression (Mitf): highly expressed | Mitf expression in cytoplasm and nucleus (Mitf; after 24 h of exposure): remained high | pigmentation of Fontana-Masson stained skin sections compared to control (human breast skin; 10 μM): increased pigmentation | melanin accumulation and/or deposition in keratinocytes (histological appearance) (human breast skin): elevation in melanin accumulation and/or deposition in the adjacent keratinocytes | melanosome level and distribution in the cytosol (B16 melanocytes [2]): melanosomes were accumulated in the perinuclear areas
